Results on 16 compounds are retold here after US20190183812A1, “Compounds For The Treatment Of Neuromuscular Disorders” (NMD PHARMA A/S, priority 2017, published 2019).

For assay [1], the target named is rat soleus muscles. Put plainly: Mg2+ concentration required to depress nerve-stimulated force by 50% (Kd,Mg2+), combination with 3,4-AP. Conditions: 3,4-AP (10 μM) alone. On the procedure: FIGS. 6A-6E. […] Muscles from 4-week-old rats were stimulated to contract by activating the motor nerve with short duration pulses in field stimulation. Muscles contracted every 10 min for 2 s in response to 30 Hz stimulation. Four different experimental conditions were used. […] C) similar to A) but this muscle had been pre-incubated with 3,4-AP. […] The force integral (AUC) was determined at each extracellular Mg^2+ concentration. AUC was plotted against Mg^2+ concentration and the data was fitted to a sigmoidal function. This provided the extracellular Mg^2+ concentration that was required to reduce the nerve-stimulated force to 50% (Mg50) under the four different conditions (see Table 5).
While the use of tubocurarine mimics conditions with reduced neuromuscular transmission due to post-synaptic dysfunction (myasthenia gravis, neuromuscular blockade), the experiments with elevated extracellular Mg^2+ mimics conditions with pre-synaptic dysfunction akin to a range of neuromuscular disorders including Lambert Eaton syndrome, motor neuron disorders and polyneuropathy. Patients with Lambert Eaton syndrome are commonly treated with inhibitors of voltage gated K^+ channels such as 3,4-diaminopyridine (3,4-AP). Based on this it was determined whether recovery of nerve-stimulated force at elevated extracellular Mg^2+ with CIC-1 inhibiting compounds could be added to force recovery with 3,4-AP. […] FIG. 6A-D show recordings of nerve-stimulated force production at different Mg^2+ concentrations when tested under these four experimental conditions. […] To quantify the effect of compounds on Mg^2+ sensitivity the force at the different Mg^2+ concentrations was determined. In plots of nerve-stimulated force against Mg^2+ concentration (FIG. 6E) the Kd,Mg^2+ was determined by fitting four parameter sigmoidal function to the data. Kd, Mg^2+ for the different compounds have been collected in Table 5.

Assay [2] deals with isolated rat soleus muscles. The experiment in a line: Recovery of nerve-stimulated force in isolated rat soleus muscles exposed to sub-maximal tubocurarine. On the procedure: (§1) Experiments were performed using rat soleus muscles from either young (4-wk-old) or adult Wistar rats (12-14-week-old). Animal handling, killing and isolation of muscle is described elsewhere All experiments were performed using normal Krebs-Ringer bicarbonate solution (NKR). In solutions with elevated Mg^2+, MgCl2 was added to NKR-solution causing minor increases in osmolarity and ionic strength. In solutions with elevated K^+, 4 mM NaCl was replaced by 4 mM KCl in the NKR.
(§2) In all contraction experiments, isometric force production was determined and force produced during contractions was quantified by measuring the integral of the force response (AUC). Stimulation and force recordings have been described elsewhere. […] In these latter experiments, extracellular recordings of action potentials (M-waves) could be measured without temporal overlap with stimulation artefacts.
The aim was to find compounds that by inhibition of CIC-1 channels can recover nerve-stimulated force under conditions of fatigue including conditions where fatigue is caused by compromised neuromuscular transmission. Neuromuscular transmission dysfunction can develop because of both pre- and/or post-synaptic complications in connection with a disorder or as part of neuromuscular blockade during/after surgery. In the initial series of drug testing, experiments were performed with isolated muscles in the presence of sub-maximal ACh receptor antagonist tubocurarine. Since the inclusion of tubocurarine caused a partial loss of neuromuscular transmission this experiment mimics the conditions in myasthenia gravis and neuromuscular blockade. To mimic conditions with pre-synaptic complication (Lambert Eaton syndrome, motor neuron disorder, polyneuropathy) the intact nerve-muscle preparations were incubated at elevated extracellular Mg^2+, which is known to suppress release of ACh from nerve terminals of motor neurons.
To identify CIC-1 inhibitors that could be used for treatment of neuromuscular disorders we repeated the experiment shown in FIG. 2A but instead of adding 9-AC we added the compounds of interest in different concentrations within the range from 10 to 500 μM. […] For comparison with the muscle only exposed to tubocurarine (grey trace), the two traces have been overlaid. […] For comparison, muscles only exposed to tubocurarine have been included. The dotted line indicates the recovery of force with C8 when compared to the force production before its addition. This value was used in Table 1 for evaluation of the efficacy of the different compounds in recovering force.

Assay [3] relates to isolated rat soleus muscles. The experiment in a line: Recovery of nerve-stimulated force in isolated rat soleus muscles at elevated extracellular Mg2+ (3.5 mM). On the procedure:
as §1, §2
The aim was to find compounds that by inhibition of CIC-1 channels can recover nerve-stimulated force under conditions of fatigue including conditions where fatigue is caused by compromised neuromuscular transmission. […]
The next series of experiments determined whether the compounds that recovered nerve-stimulated force in the presence of tubocurarine could also recover nerve-stimulated force at elevated extracellular Mg^2+.

Assay [4] deals with T1, human CIC-1 channels (Homo sapiens, UniProt P35523).
T1 construct: host or cells: CHO (Chinese hamster ovary) cells
T1 sequence (P35523 whole entry): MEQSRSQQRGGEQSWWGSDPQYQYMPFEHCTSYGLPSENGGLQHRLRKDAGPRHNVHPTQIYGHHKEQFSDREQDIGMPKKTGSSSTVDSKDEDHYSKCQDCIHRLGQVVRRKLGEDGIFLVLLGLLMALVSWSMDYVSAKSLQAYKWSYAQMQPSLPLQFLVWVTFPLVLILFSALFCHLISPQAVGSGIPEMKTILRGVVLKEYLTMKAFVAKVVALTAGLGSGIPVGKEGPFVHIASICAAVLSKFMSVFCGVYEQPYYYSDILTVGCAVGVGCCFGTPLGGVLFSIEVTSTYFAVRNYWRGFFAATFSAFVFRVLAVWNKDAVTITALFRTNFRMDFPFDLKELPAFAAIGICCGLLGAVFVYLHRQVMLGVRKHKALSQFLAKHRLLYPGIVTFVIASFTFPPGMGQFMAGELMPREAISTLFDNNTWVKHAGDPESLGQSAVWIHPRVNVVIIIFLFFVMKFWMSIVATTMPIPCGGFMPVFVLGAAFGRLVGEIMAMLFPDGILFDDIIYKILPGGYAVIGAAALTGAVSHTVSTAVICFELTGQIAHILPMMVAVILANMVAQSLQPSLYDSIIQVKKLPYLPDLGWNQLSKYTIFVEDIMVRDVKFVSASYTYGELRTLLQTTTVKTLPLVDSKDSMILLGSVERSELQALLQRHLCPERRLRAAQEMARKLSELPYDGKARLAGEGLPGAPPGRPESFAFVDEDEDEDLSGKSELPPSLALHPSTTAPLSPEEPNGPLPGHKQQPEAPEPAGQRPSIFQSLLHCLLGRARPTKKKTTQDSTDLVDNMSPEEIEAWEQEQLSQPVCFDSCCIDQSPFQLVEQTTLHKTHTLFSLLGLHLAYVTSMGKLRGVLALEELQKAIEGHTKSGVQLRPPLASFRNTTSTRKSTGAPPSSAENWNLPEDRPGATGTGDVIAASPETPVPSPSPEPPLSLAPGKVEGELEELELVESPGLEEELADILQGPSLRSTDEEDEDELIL
Put plainly: Automated patch-clamp on human CIC-1 expressed in CHO cells. Format: cell-based. The settings on record: compound added to the intracellular solution vs vehicle control patches; positive shift reflects CIC-1 inhibition. On the procedure: The investigatory goal of these experiments was to evaluate how compounds affect the open probability and current amplitude of human CIC-1 channels expressed in CHO cells. Experiments were performed using an automated patch clamp system that allowed high throughput testing of whole cell patches together with both intracellular and extracellular addition of compound.
Automated whole cell patch clamp experiments were performed with the Qpatch 16 system (Sophion Bioscience, Ballerup, Denmark) at room temperature. Data acquisition and analysis were performed in the Qassay software (ver. 5.6, Odense).
To evoke CIC-1 currents in whole cell patches, the membrane potential was initially stepped from a holding potential of −30 mV to +60 mV for 100 ms and then to various test voltages (sweeps) ranging from +120 mV to −140 mV in steps of 20 mV for 300 ms. To obtain tail currents, the membrane potential was stepped to −100 mV after each test voltage for 300 ms and then relaxed to −30 mV for 2 sec between sweeps (FIG. 3). I/V relationships for whole cell instant and steady state current amplitudes were obtained by plotting average current densities at the beginning and at the end of the 300 ms step against the membrane potential (FIG. 4).
In order to determine the relative overall open probability (P0), the instantaneous tail currents were normalized to the maximal tail current obtained following the most positive voltage step and plotted against the test voltage. Plots of normalized tail currents from each whole cell patch were then fitted to a Boltzmann function allowing determination of half activation voltages (V1/2, FIG. 5).
For automated patch clamp experiments extracellular solutions contained: 2 mM CaCl2, 1 mM MgCl2, 10 mM HEPES, 4 mM KCl, 145 mM NaCl, 10 mM Glucose, pH adjusted to 7.4 with NaOH (2 M). Osmolality adjusted to ˜320 using sucrose.
Intracellular solutions contained: 80 mM CsF, 60 mM CsCl, 5/1 mM KOH/EGTA, 10 mM HEPES, 10 mM NaCl, pH adjusted to 7.2 with NaOH (2 M). Osmolality adjusted to ˜320 mOsm using sucrose.
Cells used in patch clamp experiments were Chinese hamster ovary cells (CHO) constitutively expressing human CIC-1 channels. The amino acid sequence encoded by the cDNA used to create this cell line was identical to the translated sequence for GenBank accession number NM_000083.2. Cells were produced by Charles River (Catalogue CT6175, Cleveland Ohio, USA) in a cryopreserved format. Experiments were performed on the cells directly after thawing (3×10^6 cells used in each experiment).
To evaluate the compound effect on CIC-1, when applied directly to the intracellular side of the cell membrane, the half activation voltage, V1/2, was determined from whole cell patches with compound added to the intracellular solution and then compared to V1/2 determined from control cell patches with only vehicle added to the intracellular solution. Additionally, the effect of extracellular added compound was evaluated by determine V1/2 and steady state current amplitudes before and after exchanging the extracellular solution to contain compound.
The difference in half activation voltage of CIC-1 channels, […]V1/2, was determined as the difference between the cell patches treated intracellularly with compound and control cells patches and is reported in Table 4 below. A positive shift in […]V1/2 is reflecting CIC-1 channel inhibition by the tested compound. P-values of <0.05 is considered significant.
(In general: In patch-clamp work, channel activity is measured electrically.)

Assay [5] addresses rat soleus muscles. The experiment in a line: Tubocurarine concentration required to depress nerve-stimulated force by 50% (Kd,tub), combination with acetylcholinesterase inhibitors. On the procedure: FIGS. 5A-5E. […] Muscles from 4-week-old rats were stimulated to contract by activating the motor nerve with short duration pulses in field stimulation. Muscles contracted every 10 min for 2 s in response to 30 Hz stimulation. Four different experimental conditions were used. […] After this pre-incubation, increasing concentrations of tubocurarine were added to the bath solutions with 60 min (corresponding to six contractions) between each increase in tubocurarine. […] FIG. 5C similar to FIG. 5A but this muscle had been pre-incubated with neostigmine. […] The force integral (AUC) was determined at each tubocurarine concentration. Such AUC determinations were plotted against tubocurarine concentration for each muscle.
CIC-1 is a novel target in treatment of neuromuscular complications and it was therefore explored whether this approach for symptomatic treatment could be used in combination with existing symptomatic treatment approaches. In myasthenia gravis, which in isolated muscles was mimicked by tubocurarine, the symptoms of muscle fatigue are most commonly treated with inhibitors of acethylcholineesterase of which neostigmine and pyridostigmine are examples. Also, neostigmine is the most commonly used reversal agent of neuromuscular blocked after surgery. […] FIG. 5A-D show recordings of nerve-stimulated force production at different tubocurarine concentrations when tested under the four experimental conditions. […] To quantify the effect of compounds on tubocurarine sensitivity, the force at the different tubocurarine concentrations was determined. In plots of nerve-stimulated force against tubocurarine concentration (FIG. 5E) Kd,tub was determined by fitting four parameter sigmoidal functions to the data and the Kd,tub for the different compounds have been collected in Table 4.

The mark [6] stands for this setting: Rattus norvegicus, 40 min; read-out: 50 μM % change after addition.

Counter-ions that a name gives are not always drawn. Like-named read-outs stand apart in the source and are kept apart here.

For the compound `Nc1ccncc1N` [3,4-AP, 3,4-diaminopyridine, reference compound], in assay [1], the dissociation constant Kd (as a rule, the equilibrium constant for the complex coming apart) came out at 5800 ± 300 µM. Regarding `O=C(O)c1c2ccccc2cc2ccccc12` [Compound 9-AC, 9-anthracenecarboxylic acid, reference compound], the “recovery of force and M-wave signal” value in assay [2] (tubocurarine) is “marked recovery of both force and M-wave signal”; in assay [3], “marked recovery of both force and M-wave signal”. For `C[C@H](Oc1ccc(Cl)cc1C1CC1)C(=O)O` [Compound A-4, (2S)-2-(4-chloro-2-cyclopropylphenoxy)propanoic acid], the ΔV½ in assay [4] worked out at 8.8 mV. On the same count and under the same terms, the result for `C=Cc1cc(Br)ccc1O[C@@H](C)C(=O)O` [Compound A-17, (2S)-2-(4-bromo-2-ethenylphenoxy)propanoic acid] reads 10.3 mV; that for `C#Cc1cc(Br)ccc1O[C@@H](C)C(=O)O` [Compound A-19, (2S)-2-(4-bromo-2-ethynylphenoxy)propanoic acid], 7.7 mV. The same measure, in the same setting: the result for `C#Cc1cc(Cl)ccc1O[C@@H](C)C(=O)O` [Compound A-20, (2S)-2-(4-chloro-2-ethynylphenoxy)propanoic acid] reads 26.4 mV; that for `CCC(=O)c1cc(Cl)ccc1O[C@@H](C)C(=O)O` [Compound A-30, (2S)-2-(4-chloro-2-propanoylphenoxy)propanoic acid], 6.2 mV; that for `C[C@H](Oc1ccc(Br)cc1C=C(F)F)C(=O)O` [Compound A-36, (2S)-2-[4-bromo-2-(2,2-difluoroethenyl)phenoxy]propanoic acid], 21.5 mV.

For the compound `C[C@H](OCc1ccccc1)C(=O)O` [Compound C5, (2S)-2-(benzyloxy)propanoic acid], in assay [2] (setting [6]), the activation at 50 µM is -7%. Take `CC(C(=O)O)S(=O)(=O)c1ccc(F)cc1` (centres unmarked) [Compound C6, 2-(4-fluorobenzenesulfonyl)propanoic acid]: in assay [2] (setting [6]), the activation at 50 µM is -11%. Consider `CCC(Oc1ccc(Cl)cc1)C(=O)O` (centres unmarked) [Compound C7, 2-(4-chlorophenoxy)butanoic acid], for which the activation at 50 µM in assay [2] (setting [6]) is -12%. Same read-out and setting: with `NCC(Oc1ccc(F)cc1)C(=O)O` (centres unmarked) [Compound C9, 3-amino-2-(4-fluorophenoxy)propanoic acid hydrochloride] the figure was -14%.

Regarding `CC(Oc1ccc(Cl)cc1)C(=O)Oc1ccc(Cl)cc1` (centres unmarked) [Compound C11, 4-chlorophenyl 2-(4-chlorophenoxy)propanoate], the activation at 50 µM in assay [2] (Rattus norvegicus, 40 min, read-out: 50 μM % change after addition) stood at 46%. `COCC(C)C(Oc1ccc(Br)cc1)C(=O)O` (centres unmarked) [Compound C21, 2-(4-bromophenoxy)-4-methoxy-3-methylbutanoic acid]: the activation at 50 µM in assay [2] (setting [6]) was -3%.

On to `CN(C)C(=O)Oc1cccc([N+](C)(C)C)c1` [Neostigmine, neostigmine, reference compound], for which the Kd in assay [5] (Neostigmine (10 nM) alone) is 0.166 ± 0.013 µM.

Consider `CN(C)C(=O)Oc1ccc[n+](C)c1` [Pyridostigmine, pyridostigmine, reference compound], for which, in assay [5] (Pyridostigmine (100 nM) alone), the dissociation constant Kd came to 0.127 ± 0.015 µM.
